{"source": "patent US20250161419A1", "about": "“SERPIN PEPTIDES AND METHODS OF USING THE SAME” (SERPIN PHARMA, LLC, priority 2022, published 2025)", "key": {"TLR4": {"tested_on": "TLR4", "assay": "Immunoblot of injured sciatic nerve two days after PNL, TLR4", "format": "in vivo, mouse", "conditions": "2 μg/g s.c.", "description": "Neuropathic pain model: Mice (n=30) were randomly assigned to two different groups: SP163M (2 μg/g; s.c. 100 μl) and vehicle (H20 s.c. 100 μl). Mice were treated 1 h prior to partial nerve ligation (PNL) and then daily at least 1 h prior to behavior testing for 2 weeks. PNL studies were performed as previously disclosed^59 and adapted for mice.^57 Male mice were anesthetized with 3% isoflurane (Vetone, USA) in 1.5 L/min oxygen (Praxair, USA) and maintained with 2.5% isoflurane. An incision was made along the long axis of the femur. […] Filaments were presented in a consecutive fashion either ascending or descending using the up-down method as previously disclosed^60 and modified for mice.^57,61 The filament that caused paw withdrawal 50% of the time (the 50% PWT) was determined. […]\nImmunoblots of sciatic nerve: Sciatic nerves were harvested 2 days after PNL to identify early molecular and cellular changes. […] Nerves were lysed in RIPA buffer and equal amounts of protein (20 μg) from nerves lysates, as determined by BCA Protein Assay (Bio-Rad, Hercules, CA, USA), were subjected to 10% SDS-PAGE and electro-transferred to nitrocellulose membranes. […] Primary antibodies were detected with HRP-conjugated species-specific secondary antibodies (Cell Signaling Technology, Danvers, MA, USA; cat #7076S or 4S; 1:5000). […]"}, "CCL24": {"tested_on": "CCL24", "assay": "OVA-challenge allergic inflammation model, CCL24 in BALF by ELISA", "format": "in vivo, mouse", "conditions": "OVA-challenge in sensitized mice, treated during challenge phase, vs vehicle", "description": "Mice were subjected to the OVA-challenge allergic inflammation model and treated with vehicle or SP16 during the challenge phase. The bronchoalveolar lavage fluid (BALF) was analyzed for cytokines via ELISA.\nThe ova-induced model of allergic inflammation is a widely used model of eosinophilic driven allergic diseases."}, "CCL26": {"tested_on": "CCL26", "assay": "CCL26 release by esophageal epithelial cells (EPC2)", "format": "cell-based, human", "description": "FIG. 12A: Poly I:C-induced TSLP production by SPINK7 knockout EPC2 cells (Human esophageal epithelial cells). SPINK7 KO cells and control cells were plated in high calcium and high density, for 48 hours before being treated with SP16 or 7G and Poly I:C (5 μg/ml, or untreated) for 8 hours. TSLP production in the supernatant was measured by ELISA. FIG. 12B: primary esophageal epithelial cells (EPC2) were treated with SP16 and then stimulated with IL-13, a TH2 response mediated cytokine, to induce CCL26.\nSP16 reduces several key cytokines involved in allergic responses. Upon knockout of SPINK7, esophageal epithelial cells release exacerbated levels of TSLP. TSLP is a key mediator of immune cell responses upon activation to an insult such as allergens."}, "TSLP": {"tested_on": "TSLP", "assay": "MC903 AD model, TSLP in ears and serum by ELISA", "format": "in vivo, mouse", "conditions": "topical, vs MC903 treated mice", "description": "Mice were treated with SP16 in 70% EtOH (MC903+SP16) or drug vehicle (MC903). Normal control (NC) mice were treated with EtOH only. Ears were measured for PAR2 protein expression through western blot analysis (quantitative analysis after normalization to beta-actin shown) (n=3-5). TSLP was measured in both the ears and serum by ELISA (N=3-5). Scratching was assessed over a 3 minute period after a 5-minute acclimatization period and the number of scratches are shown (n=3). IL-4 was measured in ear lysate via ELISA (N=3-5)."}}}
{"sequence": "VKFNKPFVFLMIEQNTK (SP16 peptide core sequence including the LRP1 binding site; listed as Homo sapiens)", "values": [{"measurement": "TLR4 expression in injured sciatic nerve (immunoblots)", "setting": "TLR4", "result": "robustly down regulated TLR4 expression"}, {"measurement": "CCL24 in BALF", "setting": "CCL24", "result": "significantly reduces CCL24"}, {"measurement": "CCL26 release (text: Poly 1:C mediated)", "setting": "CCL26; primary SPINK7 knockout esophageal cells", "result": "effective in significantly reducing Poly 1:C mediated TSLP and CCL26 release"}, {"measurement": "CCL26 release induced by IL-13", "setting": "CCL26; primary esophageal epithelial cells (EPC2), SP16 then IL-13", "result": "significantly reduced CCL26 release dose dependently"}, {"measurement": "local (ear) TSLP", "setting": "TSLP", "result": "significant reduction in systemic (serum) and local (ear) TSLP"}, {"measurement": "systemic (serum) TSLP", "setting": "TSLP", "result": "significant reduction in systemic (serum) and local (ear) TSLP"}]}
